Results taken from US20240366648A1, “NAD-AUGMENTATION THERAPY FOR PARKINSON'S DISEASE” (Vestlandets Innovasjonsselskap AS (VIS), priority 2021, published 2024).

Experiments:
NAD metabolome in CSF = assay: CSF metabolomics (LC-MS); format: in vivo, human; details: all NR-recipients; oral NR 1000 mg/day, 30 days
Method: Biological material was collected at both visits, following a minimum 6-hour fasting and within 6 hours after study drug intake for visit 2. Sampling included whole blood, serum, peripheral blood mononuclear cells (PBMCs), cerebrospinal fluid (CSF) and muscle biopsy. Lumbar puncture was performed according to standard clinical procedures to collect 10 ml CSF. Needle biopsy of the vastus lateralis muscle was performed using a Bard Magnum biopsy gun (BD©, United States) and 12G×10 cm biopsy needles. Muscle biopsies were immediately dissected to remove any non-muscle tissue (e.g., fat or fascia) and snap-frozen in liquid nitrogen.
The extraction of metabolites from CSF samples was carried out as follows: 400 μl of each sample were mixed with 1600 μl of ice-cold UHPLC grade methanol. […] Recovery rate was tested for several relevant nucleotides and determined to be 93-96%, depending on the nucleotide.
Metabolite analysis was conducted using a Dionex UltiMate 3000 instrument coupled with an electrospray ionization (ESI) QExactive mass spectrometer (Thermo Scientific). […] Mass spectra were recorded using targeted single ion monitoring with an isolation window of 10 m/z with automatic gain control set to a target of […] and a maximum accumulation time of 300 ms. […] Absolute concentrations were calculated by external calibration curves using pure standards. […]

[1] = tested on: individuals with Parkinson's disease; assay: High-dose NR safety study in PD (Example 5); format: in vivo, human; details: oral NR 3000 mg daily, 4 weeks
Method: • To determine the safety of oral NR 3000 mg daily for a period of 4 weeks in individuals with Parkinson's disease (PD). Safety is defined as the absence of NR-associated moderate or severe adverse events (AE).
This is a single center, phase I double blinded, randomized, placebo controlled drug-safety study.
20 patients are included in this study: 10 receiving 3000 mg oral NR and 10 receiving placebo.
Each capsule of NR contains 250 mg of NR. Patients administer orally 6 capsules (1500 mg) two times daily (3000 mg daily total) for the duration of the study (4 weeks). Placebo capsules are administered similarly (6 capsules two times daily). The study medication is to be taken every day during the treatment period, including prior to study visits.
An adverse event (AE) can therefore be any unfavourable and unintended sign (including an abnormal laboratory finding), symptom, or disease temporally associated with the use of a investigational product, whether or not related to the investigational product. The term AE is used to include both serious and non-serious AEs. If an abnormal laboratory value/vital sign is associated with clinical signs and symptoms, the sign/symptom is reported as an AE and the associated laboratory result/vital sign is considered as additional information that must be collected. Only intensity 2 and 3 is registered as AE. […]

## NC(=O)c1ccc[n+]([C@@H]2O[C@H](CO)[C@@H](O)[C@H]2O)c1 [NR, nicotinamide riboside]
NAD metabolome in CSF
  CSF Me-2-PY levels: increase
[1]
  adverse events reported throughout the study: no serious adverse events or any adverse events of medical significance
